Patent US10919887B2, “Salts and solid forms of a monobactam antibiotic” (Novartis AG, priority 2015, dated 2021)
Values after ≈ are worked out from the molar mass of the structure shown.

Experiments:
[1] = Stability of solid forms as relative humidity is varied; type: physicochemical
Description: This material is referred to herein as Form 5.
Water (20 mL) and THF (40 mL) were mixed in a flask, and Compound X (10 g, ca. 91% pure by HPLC) was added with stirring at 25° C. to provide a clear yellow solution. A 20 mg sample of Form 5 (see above) was added as a seed, and the mixture was stirred for 50 mins. THF (140 mL) was then added slowly, over 1 hr and the mixture was stirred for 2 hr more. The suspension was filtered, and the wet cake was washed with cold (<5° C.) water, then dried at 20-25° C. for 11 hrs at 100 mbar pressure, providing 6.6 g of Form 5 trihydrate that was 97.8% pure by HPLC. It appears stable when stored at 25-50% relative humidity, preferably 30-40% RH; at lower or higher relative humidity, it may evolve to different hydrated states as described herein.
Compound X of Form 1 (anhydrate) was exposed to 43% relative humidity for one day or more. The crystalline product appears to be a sesquihydrate (Compound X-1.5 H2O) based on water content determination. Note that Form 5, the trihydrate, under similar conditions would be stable, yet when starting with the anhydrate, it appears to equilibrate as a sequihdyrate under these conditions and remains in that form for at least 14 days when kept at the same relative humidity. This crystalline form produces the XRPD spectrum shown in FIG. 11, and is referred to herein as Form 10. The table below summarizes the main peaks in the XRPD of this sample.
Compound X of Form 5, the trihydrate, was exposed to relative humidity of 22% for about 3 days to provide a crystalline solid characterized as a dihydrate (Compound X-2H2O) based on water content analysis. […] The dihydrate, referred to herein as Form 11, produced the XRPD spectrum shown in FIG. 12: the main peaks in that XRPD spectrum are listed in the following table.
Compound X of Form 5 was exposed to air with a relative humidity of 65% for about 3 days, providing a crystalline material characterized as a tetra-hydrate based on water content analysis. […] The tetrahydrate, referred to herein as Form 12, produced the XRPD spectrum shown in FIG. 13: the main peaks in that XRPD spectrum are listed in the following table.
Note that at 92% relative humidity, Compound X appears to be a mixture of a crystal form characterized as hexahydrate mixed with the tetrahydrate of Form 12. By comparison, the anhydrate (Form 1) preferentially converts to a sesquihydrate as the relative humidity is increased to 43%, and evolves to trihydrate and tetrahydrate at higher relative humidities.

[2] = Stability testing of solid salts at 25° C. and 40° C., purity by HPLC; type: physicochemical; conditions: solid salt
Description: Salts of Compound X were prepared by adding a base (1.0 or 2.0 equiv.) to Compound X in water, and lyophilizing the solution. The solids thus obtained appear to be amorphous by XRPD. In this manner, formation of salts of Compound X were attempted with sodium hydroxide, (L)-lysine, (L)-arginine, calcium hydroxide, meglumine, and magnesium hydroxide.
Samples of the disodium salt and the di-(L)-arginine salt as solids were subjected to stability testing at 25° C. and 40° C. The sample of sodium salt was 97.2% pure by HPLC initially, and after 6 weeks at 25° C., it was still 96.2% pure. The same material held at 40° C. was 94.8% pure after 3 weeks, and 93.6% pure after 6 weeks. Significant impurities that appear or increase during the study appear at relative retention times (RRT) 0.34 and 1.11 (with Compound X defined as RRT=1).
The arginine salt was 97.3% pure by HPLC initially, and was 96.3% pure after 6 weeks at 25° C. At 40° C., its purity dropped to 95.1% after 3 weeks and 94.2% after 6 weeks. Significant impurities that appear or increase during this study appear at relative retention times (RRT) 1.09, 1.11 and 1.13 (with Compound X defined as RRT=1). The HPLC traces for the samples from these stability studies after 6 weeks at 25° C. and 40° C. respectively are shown in FIGS. 10 and 11. The lower trace in each Figure is a sample used to measure the limit of quantitation (LOQ); the next trace above that represents the sample of Compound X used for salt formation; the next trace above that one is for the arginine salt after 6 weeks; and the next (top) trace is for the sodium salt after 6 weeks.
HPLC Conditions for the stability studies (FIGS. 10 and 11):
Agilent 1290 system with UV detector at 260 nm
Acquity HSS T3 column, 100 mm×2.1 mm ID; 1.8 μm particle size (supplied by Waters)
• A: 0.05% TFA in water • B: 0.05% TFA in methanol Flow rate: 0.45 mL/min Gradient (A/B ratio): 97:3 for 8 minutes; 75:25 for 3 minutes; 0:100 for 1 minute

[3] = Stability of Compound X and its salts in aqueous solution; type: physicochemical; conditions: salts made with 1.0 or 2.0 equiv. base, lyophilized; for aqueous media for intravenous use
Source text: It is important for a drug product to be stable enough to avoid significant degradation when it is shipped and stored under commercially practical conditions. The inventors have discovered that Compound X in solution is preferably used and stored at a pH between 4 and 6, preferably between 4.0 and 5.5, for maximum stability in the presence of moisture. Optimal solution stability is achieved at a pH of about 4.0 to 5.5 Accordingly, the invention provides pharmaceutical compositions comprising Compound X at a pH between 4 and 6, preferably between 4.0 and 5.5, and more preferably at a pH of about 5±0.5 or at pH of 5±0.2. Suitable compositions comprise Compound X in an aqueous solution, such as a dextrose or saline solution, which may be isotonic, and may contain other substances such as stabilizers, antioxidants, buffers or pH modifiers, nutrients, and the like. In some of these embodiments, the desired pH is achieved by combining Compound X and a pH modifier suitable to achieve the desired pH in an aqueous solution. Suitable pH modifiers include but are not limited to sodium hydroxide, sodium carbonate, sodium bicarbonate, potassium carbonate, potassium hydroxide, amines such as TRIS (tris(hydroxymethyl)aminomethane), and amino acids such as arginine, lysine, histidine, and the like. Known monobactams, including aztreonam, have been formulated with arginine. […]

[4] = system: E. coli NB27273-CDY0026 (parent); experiment: MIC by broth microdilution, isogenic E. coli parent strain; type: cell-based; conditions: Escherichia coli, read-out: Strain 1 MIC
Description: Bacterial isolates were cultivated from −70° C. frozen stocks by two consecutive overnight passages at 35° C. in ambient air on 5% blood agar (Remel, Lenexa, Kans.). Quality control and P. aeruginosa ATCC 27853) is from the American Type Culture Collection (ATCC; Rockville, Md.) and PAO1 was received from Dr. K. Poole.
Strain NB27273 (BW25113 pspB::Km^r) was obtained from the Keio transposon insertion collection. The strain has the pspB gene replaced by a kanamycin resistance marker (BW25113 pspB::Km^r). This strain was cured of the transposon in pspB via FLP recombinase using published methodology. The resulting strain, BW25113 pspB, was used as a host for multicopy vectors expressing key β-lactamases. Multicopy plasmids directing constitutive expression of β-lactamases were established as follows: Synthetic, codon optimized genes encoding E. coli KPC2 and SHV12-lactamases were made by DNA2.0 (Palo Alto, Calif.). Each of the synthetic fragments were designed to contain NotI and NcoI restriction sites at their termini, allowing ligation into a NotI/NcoI digested pET28a(+) derivative for protein expression. […]

Nc1nc(/C(=N/OC2(C(=O)O)CC2)C(=O)N[C@@H]2C(=O)N(S(=O)(=O)O)[C@@H]2CN2CCOC2=O)cs1 [Form 5]
form change at high relative humidity ([1]; RH above 80%): converts to Form 4 within a day
relative humidity at which the form appears stable when stored ([1]; storage of Form 5 trihydrate): 25-50%

Nc1nc(/C(=N/OC2(C(=O)O)CC2)C(=O)N[C@@H]2C(=O)N(S(=O)(=O)O)[C@@H]2CN2CCOC2=O)cs1 [Form 10]
time the form remains unchanged ([1]; kept at 43% relative humidity): at least 14 days

Nc1nc(/C(=N/OC2(C(=O)O)CC2)C(=O)N[C@@H]2C(=O)N(S(=O)(=O)O)[C@@H]2CN2CCOC2=O)cs1 [Form 12]
form change when relative humidity is reduced ([1]; relative humidity reduced to about 40%): readily reverts to the trihydrate (Form 5)

N=C(N)NCCC[C@H](N)C(=O)O.N=C(N)NCCC[C@H](N)C(=O)O.Nc1nc(/C(=N/OC2(C(=O)O)CC2)C(=O)N[C@@H]2C(=O)N(S(=O)(=O)O)[C@@H]2CN2CCOC2=O)cs1 [arginine salt]
purity by HPLC ([2]; after 3 weeks at 40° C.): 95.1%
purity by HPLC ([2]; after 6 weeks at 25° C.): 96.3%
purity by HPLC ([2]; after 6 weeks at 40° C.): 94.2%
purity by HPLC ([2]; initially): 97.3%
stability of salts [3]: particularly stable

C[C@H]1[C@H](NC(=O)/C(=N\OC(C)(C)C(=O)O)c2csc(N)n2)C(=O)N1S(=O)(=O)O [compound 1]
MIC [4]: 0.125 µg/mL (≈ 0.287 µM)
